Source: ChEMBL document CHEMBL1201862, “PubChem BioAssay data set” (2004)
The source made the active and inactive calls.

Legend:
[1] = target: T1, Oxysterols receptor LXR-beta (Homo sapiens, UniProt P55055); format: functional, cell-based;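 note: Cell-based luminescence dose-response assay of agonist activity at LXR, run as a confirmatory counterscreen to a daf-12 agonist screen; HEK293 cells with Gal4-LXR fusion and GAL4-driven luciferase reporter; agonist potency from rising luciferase signal of a Gal4-LXR reporter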
T1 sequence (P55055 whole entry): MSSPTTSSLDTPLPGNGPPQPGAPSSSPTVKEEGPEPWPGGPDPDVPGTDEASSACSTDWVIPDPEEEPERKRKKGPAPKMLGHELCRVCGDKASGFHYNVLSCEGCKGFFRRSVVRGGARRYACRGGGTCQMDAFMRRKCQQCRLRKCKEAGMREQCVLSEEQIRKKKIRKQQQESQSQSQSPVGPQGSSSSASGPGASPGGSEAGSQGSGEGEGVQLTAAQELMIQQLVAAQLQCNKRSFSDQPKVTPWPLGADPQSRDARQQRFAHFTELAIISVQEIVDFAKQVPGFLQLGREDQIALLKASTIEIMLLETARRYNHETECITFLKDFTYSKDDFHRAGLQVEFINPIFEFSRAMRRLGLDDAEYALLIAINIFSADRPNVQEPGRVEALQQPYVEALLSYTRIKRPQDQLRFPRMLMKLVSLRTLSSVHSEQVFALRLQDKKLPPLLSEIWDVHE

[2] = cells
[3] = target: T2, Cysteine protease ATG4B (Homo sapiens, UniProt Q9Y4P1); format: functional;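 note: Fluorescence-based dose-response confirmation assay measuring inhibition of ATG4B activity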
T2 sequence (Q9Y4P1 whole entry): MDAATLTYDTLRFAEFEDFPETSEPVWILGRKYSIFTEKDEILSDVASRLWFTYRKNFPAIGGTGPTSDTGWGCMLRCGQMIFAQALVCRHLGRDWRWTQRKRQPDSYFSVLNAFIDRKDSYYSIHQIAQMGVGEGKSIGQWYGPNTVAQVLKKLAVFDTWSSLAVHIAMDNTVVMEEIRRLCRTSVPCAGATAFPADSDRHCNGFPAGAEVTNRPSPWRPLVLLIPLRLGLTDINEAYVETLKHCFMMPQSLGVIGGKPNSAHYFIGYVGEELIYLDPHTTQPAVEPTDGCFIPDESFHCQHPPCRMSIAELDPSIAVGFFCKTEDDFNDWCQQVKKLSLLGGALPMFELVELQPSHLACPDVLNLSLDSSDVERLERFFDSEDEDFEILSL

[4] = target: Phospholipase A2 (Homo sapiens, UniProt P04054); format: functional;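 note: confirmatory dose-response counterscreen on phospholipase A2, testing hits that came from an ultra-high-throughput screen for ATG4B inhibitors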
Chain of Phospholipase A2 (P04054 whole entry): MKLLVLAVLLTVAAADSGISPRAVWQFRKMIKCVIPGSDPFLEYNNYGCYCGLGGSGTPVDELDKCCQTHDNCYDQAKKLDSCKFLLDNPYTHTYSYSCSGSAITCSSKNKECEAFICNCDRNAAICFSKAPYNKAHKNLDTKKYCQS

[5] = target: Genome polyprotein (dengue virus type 2, UniProt P29990); experiment: flavivirus cap methylation enzyme inhibition – biochemical, confirmation dose response, primary screen (AID 588689); format: functional
Chain of Genome polyprotein (P29990 2492-3391 limits assumed): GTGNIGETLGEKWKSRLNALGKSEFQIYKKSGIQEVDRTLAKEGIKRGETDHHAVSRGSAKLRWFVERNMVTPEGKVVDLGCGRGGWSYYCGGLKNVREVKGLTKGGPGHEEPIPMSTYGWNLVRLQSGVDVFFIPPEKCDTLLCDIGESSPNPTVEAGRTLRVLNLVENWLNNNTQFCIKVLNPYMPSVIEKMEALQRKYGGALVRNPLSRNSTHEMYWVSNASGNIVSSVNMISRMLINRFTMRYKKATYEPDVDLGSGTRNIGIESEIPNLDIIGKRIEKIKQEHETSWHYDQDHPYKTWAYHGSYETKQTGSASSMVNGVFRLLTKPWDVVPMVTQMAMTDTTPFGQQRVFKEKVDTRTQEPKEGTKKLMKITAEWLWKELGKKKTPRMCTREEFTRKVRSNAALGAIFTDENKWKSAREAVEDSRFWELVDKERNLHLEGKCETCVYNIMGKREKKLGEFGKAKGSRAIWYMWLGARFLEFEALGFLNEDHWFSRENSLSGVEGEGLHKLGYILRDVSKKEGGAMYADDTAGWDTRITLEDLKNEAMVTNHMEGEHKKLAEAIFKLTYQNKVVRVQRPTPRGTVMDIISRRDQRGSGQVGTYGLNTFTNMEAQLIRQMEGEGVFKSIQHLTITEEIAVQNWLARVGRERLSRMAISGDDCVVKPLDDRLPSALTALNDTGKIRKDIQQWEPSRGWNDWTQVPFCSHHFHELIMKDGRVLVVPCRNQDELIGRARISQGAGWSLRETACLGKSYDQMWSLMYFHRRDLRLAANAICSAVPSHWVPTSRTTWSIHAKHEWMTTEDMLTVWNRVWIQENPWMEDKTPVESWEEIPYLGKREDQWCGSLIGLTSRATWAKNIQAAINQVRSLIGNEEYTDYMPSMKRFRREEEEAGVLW

[6] = target: T3, Cytochrome P450 3A4 (Homo sapiens, UniProt P08684);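 note: CYP3A4 tested as one member of a cytochrome P450 panel screen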
T3 sequence (P08684 whole entry, the tested form may be a part): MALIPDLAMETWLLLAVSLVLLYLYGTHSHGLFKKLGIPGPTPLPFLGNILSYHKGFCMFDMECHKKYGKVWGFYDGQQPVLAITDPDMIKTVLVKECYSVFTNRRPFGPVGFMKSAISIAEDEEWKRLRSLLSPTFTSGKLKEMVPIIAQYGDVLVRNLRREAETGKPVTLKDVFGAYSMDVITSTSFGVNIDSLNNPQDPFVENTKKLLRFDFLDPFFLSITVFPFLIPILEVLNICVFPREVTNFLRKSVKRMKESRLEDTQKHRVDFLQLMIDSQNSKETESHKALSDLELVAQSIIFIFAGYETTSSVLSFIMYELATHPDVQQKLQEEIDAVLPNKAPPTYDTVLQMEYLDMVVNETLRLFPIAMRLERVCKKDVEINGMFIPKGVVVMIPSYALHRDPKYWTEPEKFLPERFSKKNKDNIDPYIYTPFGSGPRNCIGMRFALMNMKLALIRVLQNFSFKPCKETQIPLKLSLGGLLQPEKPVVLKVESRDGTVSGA

[7] = blockers of HIV-1 envelope-mediated cell-cell fusion – cherry-pick, dose response (AID 652057); format: functional, cell-based
[8] = blockers of HIV-1 ZM109 envelope-driven cell-cell fusion – HeLa effector, CEM target cells, luciferase, cherry-pick, dose response (AID 652058); format: functional, cell-based;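 note: luciferase signal from HIV-1 Env mediated cell-cell fusion of effector and target cells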
[9] = off-target signal loss in HeLa-CEM21 co-culture – HeLa F-luc CTL cells, cherry-picked, counter-screen for HIV-1 Env fusion inhibitor project, dose response (AID 652040); format: functional, cell-based;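 note: potency for signal decrease marking cytotoxic or nonspecific inhibition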
[10] = HIV-1 AD8 envelope cell-cell fusion blockers – cherry-pick, dose response (AID 652062); format: functional, cell-based;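 note: luciferase signal from cell-cell fusion driven by HIV-1 clade B AD8 Env; potency is for inhibitors of fusion seen as a drop in luminescence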
[11] = target: Paired box protein Pax-8 (Homo sapiens, UniProt Q06710); experiment: PAX8 transcriptional activity inhibition in RMG-I – RMG-I cells, luciferase, cherry-pick, dose response (AID 687027); format: functional, cell-based;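 note: luciferase reporter driven by Pax8 target thyroperoxidase promoter measured by SteadyGlo luminescence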
Chain of Paired box protein Pax-8 (Q06710 whole entry): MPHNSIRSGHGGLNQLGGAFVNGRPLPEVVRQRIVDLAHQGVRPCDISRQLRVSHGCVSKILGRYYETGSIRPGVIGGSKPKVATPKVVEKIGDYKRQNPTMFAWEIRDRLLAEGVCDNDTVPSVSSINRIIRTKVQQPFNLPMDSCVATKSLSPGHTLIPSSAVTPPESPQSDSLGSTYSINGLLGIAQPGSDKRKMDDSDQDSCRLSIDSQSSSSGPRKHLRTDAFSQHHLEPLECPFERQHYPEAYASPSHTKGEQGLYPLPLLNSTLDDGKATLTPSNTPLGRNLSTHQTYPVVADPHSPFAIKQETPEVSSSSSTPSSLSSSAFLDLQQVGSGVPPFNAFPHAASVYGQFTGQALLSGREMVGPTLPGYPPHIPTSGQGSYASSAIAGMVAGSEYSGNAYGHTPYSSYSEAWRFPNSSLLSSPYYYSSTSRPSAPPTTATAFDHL

[12] = OVCAR8 cell viability loss – plate reader, dry powder samples, PAX8 project, dose response (AID 743197); format: functional, cell-based; details: OVCAR-8
[13] = target: T4, Carboxy-terminal domain RNA polymerase II polypeptide A small phosphatase 1 (Homo sapiens, UniProt Q9GZU7); experiment: CTDSP1 inhibitors, concentration-response, biochemical, absorbance readout, ultra-high-throughput screen actives (AID 540297); format: functional
T4 sequence (Q9GZU7 whole entry): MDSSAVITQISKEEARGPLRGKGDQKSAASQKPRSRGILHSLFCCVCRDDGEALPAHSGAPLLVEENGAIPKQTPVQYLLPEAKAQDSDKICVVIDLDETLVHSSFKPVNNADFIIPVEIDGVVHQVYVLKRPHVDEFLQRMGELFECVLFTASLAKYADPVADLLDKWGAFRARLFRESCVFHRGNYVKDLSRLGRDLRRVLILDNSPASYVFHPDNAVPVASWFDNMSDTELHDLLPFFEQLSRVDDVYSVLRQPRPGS

[14] = target: Cytochrome P450 2C19 (Homo sapiens, UniProt P33261); experiment: Cytochrome panel assay with activity outcomes. Panel member name: p450-cyp2c19 Compounds with AC50 equal or less than 10 uM are considered active; format: functional; details: read-out: AC50
Chain of Cytochrome P450 2C19 (P33261 whole entry): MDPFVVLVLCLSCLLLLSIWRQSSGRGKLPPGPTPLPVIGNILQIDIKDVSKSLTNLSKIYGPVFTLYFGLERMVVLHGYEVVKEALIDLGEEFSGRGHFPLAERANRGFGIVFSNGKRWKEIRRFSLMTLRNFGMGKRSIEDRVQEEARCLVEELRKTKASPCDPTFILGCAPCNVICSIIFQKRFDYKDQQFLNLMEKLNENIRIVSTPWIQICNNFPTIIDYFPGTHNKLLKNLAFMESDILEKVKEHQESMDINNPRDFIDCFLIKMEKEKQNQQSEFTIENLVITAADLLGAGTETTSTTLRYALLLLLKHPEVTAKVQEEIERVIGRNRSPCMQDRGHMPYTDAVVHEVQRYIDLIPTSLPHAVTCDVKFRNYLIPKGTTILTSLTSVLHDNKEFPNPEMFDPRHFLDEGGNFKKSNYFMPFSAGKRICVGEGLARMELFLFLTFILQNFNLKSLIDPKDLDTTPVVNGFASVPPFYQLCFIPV

[15] = target: T5, Rac GTPase-activating protein 1 (Homo sapiens, UniProt Q9H0H5); experiment: blockers of MgcRacGAP-driven Rac1 GTP hydrolysis – biochemical, ADP Hunter fluorescence, primary and confirmatory, confirmation (AID 624330); format: functional
T5 sequence (Q9H0H5 whole entry): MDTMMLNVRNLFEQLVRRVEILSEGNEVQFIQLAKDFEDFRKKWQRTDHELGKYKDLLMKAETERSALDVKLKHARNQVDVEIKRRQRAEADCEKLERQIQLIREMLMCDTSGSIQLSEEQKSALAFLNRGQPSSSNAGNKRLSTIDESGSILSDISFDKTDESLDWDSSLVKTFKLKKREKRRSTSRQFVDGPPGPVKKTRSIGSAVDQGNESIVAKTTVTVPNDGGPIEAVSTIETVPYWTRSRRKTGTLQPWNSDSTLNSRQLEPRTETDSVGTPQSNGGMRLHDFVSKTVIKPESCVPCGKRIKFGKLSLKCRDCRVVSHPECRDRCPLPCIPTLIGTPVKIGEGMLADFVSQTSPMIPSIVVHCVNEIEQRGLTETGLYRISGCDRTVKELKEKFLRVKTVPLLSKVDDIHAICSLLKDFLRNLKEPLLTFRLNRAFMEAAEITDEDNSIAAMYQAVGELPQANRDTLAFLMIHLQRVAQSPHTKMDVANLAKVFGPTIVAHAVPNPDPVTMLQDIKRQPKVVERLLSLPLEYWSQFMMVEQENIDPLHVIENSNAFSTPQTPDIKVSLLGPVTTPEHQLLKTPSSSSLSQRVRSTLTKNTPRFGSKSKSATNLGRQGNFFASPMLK

[16] = target: Cytochrome P450 2D6 (Homo sapiens, UniProt P10635);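 note: CYP2D6 member of a cytochrome P450 panel assay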
Chain of Cytochrome P450 2D6 (P10635 whole entry): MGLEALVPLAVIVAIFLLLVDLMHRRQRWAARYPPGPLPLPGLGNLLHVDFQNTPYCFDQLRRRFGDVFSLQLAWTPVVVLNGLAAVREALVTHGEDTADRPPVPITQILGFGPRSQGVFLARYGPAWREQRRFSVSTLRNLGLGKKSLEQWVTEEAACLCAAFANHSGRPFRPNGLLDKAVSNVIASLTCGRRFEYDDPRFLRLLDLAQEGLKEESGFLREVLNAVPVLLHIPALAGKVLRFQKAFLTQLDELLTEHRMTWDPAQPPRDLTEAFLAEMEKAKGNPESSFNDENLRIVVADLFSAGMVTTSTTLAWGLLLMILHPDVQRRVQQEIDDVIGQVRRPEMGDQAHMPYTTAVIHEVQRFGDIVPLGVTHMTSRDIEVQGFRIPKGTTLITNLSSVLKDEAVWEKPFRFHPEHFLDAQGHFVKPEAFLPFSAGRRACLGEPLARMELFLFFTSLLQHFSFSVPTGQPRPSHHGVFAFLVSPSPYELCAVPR

[17] = target: T3, Cytochrome P450 3A4; remark: listed apart in the source
[18] = target: Cytochrome P450 2C9 (Homo sapiens, UniProt P11712)
Chain of Cytochrome P450 2C9 (P11712 whole entry): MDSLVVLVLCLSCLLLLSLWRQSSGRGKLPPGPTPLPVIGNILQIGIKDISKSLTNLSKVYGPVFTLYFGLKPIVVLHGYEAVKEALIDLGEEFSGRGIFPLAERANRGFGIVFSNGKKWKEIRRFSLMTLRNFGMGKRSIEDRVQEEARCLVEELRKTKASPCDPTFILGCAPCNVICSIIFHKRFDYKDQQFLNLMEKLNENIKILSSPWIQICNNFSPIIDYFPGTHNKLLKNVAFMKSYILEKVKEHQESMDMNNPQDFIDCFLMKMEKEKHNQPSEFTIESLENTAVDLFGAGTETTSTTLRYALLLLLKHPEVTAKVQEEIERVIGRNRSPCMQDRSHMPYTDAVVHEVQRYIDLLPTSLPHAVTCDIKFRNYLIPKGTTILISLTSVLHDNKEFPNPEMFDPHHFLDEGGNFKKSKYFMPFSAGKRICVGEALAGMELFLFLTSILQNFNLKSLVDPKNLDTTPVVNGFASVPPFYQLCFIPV

## O=C(COc1ccccc1Cl)Nc1ccc(Cl)cn1
[1]
  EC50: > 67.5 µM (inactive)
[2]
  EC50: > 67.5 µM (inactive)

## COc1cc(NS(=O)(=O)c2ccc(Nc3nc(-c4cccc([N+](=O)[O-])c4)cs3)cc2)nc(OC)n1
[3]
  IC50: 11.3 µM (active)
[4]
  IC50: 9.57 µM (active)

## CCOc1cc(/C=C2/SC(=S)N(CC(=O)O)C2=O)ccc1OC(=O)c1cccs1
[5]
  IC50: 56.3 µM (active)

## c1ccc2c(CSCCc3ccncc3)cccc2c1
[6]
  AC50: inconclusive

## C=CCN([C@@H](CC(C)C)C(=O)OC)S(=O)(=O)N(CC=C)[C@@H](CC(C)C)C(=O)OC
[7]
  AC50: 6.72 µM (active)
[8]
  AC50: 24.7 µM (active)
[9]
  AC50: 21 µM (active)
[10]
  AC50: 25.9 µM (active)

## C[C@H](CO)N1C[C@H](C)[C@H](CN(C)Cc2ccc(-c3ccccc3)cc2)Oc2ccc(NS(=O)(=O)c3ccc(F)cc3)cc2CC1=O
[11]
  AC50: 27.1 µM (active)
[12]
  AC50: > 70 µM (inactive)

## C[C@@H]1CCCCO[C@H](CN(C)Cc2ccc3c(c2)OCO3)[C@@H](C)CN([C@@H](C)CO)C(=O)c2cc(NS(=O)(=O)c3ccc(Cl)cc3)ccc2O1
[11]
  AC50: 9.45 µM (active)
[12]
  AC50: > 70 µM (inactive)

## O=C(N/N=C/c1ccco1)C1CC1c1ccccc1 (centres undefined)
[13]
  IC50: 9.59 µM (active)

## C/C(=N\Nc1nc2ccccc2s1)c1cccs1
[1]
  EC50: > 67.5 µM (inactive)
[2]
  EC50: > 67.5 µM (inactive)

## CCOC(=O)c1c(NC=C2C(=O)CC(C)(C)CC2=O)sc(C)c1C
[3]
  IC50: 5.45 µM (active)
[4]
  IC50: 5.12 µM (active)

## Cc1cc(C(=O)c2cnc(/N=C/N(C)C)s2)cc(C)c1O
[14]
  AC50: 25.1 µM (inconclusive)
[15]
  IC50: 108 µM (active)
[16]
  AC50: 25.1 µM (inconclusive)
[17]
  AC50: 25.1 µM (inconclusive)
[18]
  AC50: inconclusive
